Measured values published in patent publication US20090182149A1, “SALT OF SULFINYLBENZIMIDAZOLE COMPOUND, AND CRYSTAL AND AMORPHOUS FORM THEREOF” (priority 2006, published 2009).

System: gastric secretion (gastric acid output) in chronic gastrostormy tube-implanted dogs
Assay: Gastric secretion inhibitory action in chronic gastrostormy tube-implanted dogs (histamine-stimulated)
Format: in vivo
Conditions: i.d., histamine i.v.; for Gastric secretion inhibitory action (%): first day, 1 h 40 min to 2 h after administration; for Gastric secretion inhibition duration (%): second day (24 hours after administration)
Procedure: Gastric Secretion Inhibitory Action in Chronic Gastrostormy Tube-Implanted Dogs
Large dogs (body weight: 14-19 kg) having chronic gastrostormy tubes implanted were used to examine the gastric secretion inhibitory action and gastric secretion inhibitory action durations of the example compounds. The experiment was conducted over a period of 2 days. On the first day, histamine (50 or 75 μg/kg/h) was continuously administered intravenously for 3 hours and gastric juice was taken every 20 minutes. One hour after starting histamine administration, the example compound suspended or dissolved in a 0.5% methylcellulose solution was administered to the duodenum through an indwelling catheter at a dose of 0.1 ml/kg. The gastric secretion inhibitory action of the example compound was examined for 2 hours thereafter. On the second day (24 hours after administration of the example compound), histamine was continuously administered intravenously for 2 hours and gastric juice was taken every 20 minutes to examine the gastric secretion inhibitory action duration. After measuring the gastric juice volume, 0.5 ml of gastric juice was sampled and subjected to neutralization titration to pH 7.0 with a 0.04 mol/l sodium hydroxide solution to measure the acid concentration. The acid concentration was multiplied by the gastric juice volume to determine the gastric acid output. The gastric secretion inhibitory action was evaluated by the gastric secretion inhibition (%) on the first day. The gastric secretion inhibitory action (%) was determined by the formula shown below. Where two or more cases were examined, the average of all the cases was determined.
Gastric secretion inhibitory action (%)=(A−B)/A×100
[A]: Gastric acid output during 20 minutes, from 40 minutes to 1 hour after start of histamine administration [B]: Gastric acid output during 20 minutes, from 1 hour and 40 minutes to 2 hours after administration of example compound
The gastric secretion inhibitory action duration was evaluated by the gastric secretion inhibition (%) on the second day. The gastric secretion inhibitory action duration (%) was determined by the formula shown below.
Gastric secretion inhibitory action duration (%)=(C−D)/C×100
[C]: Total gastric acid output from start to one hour after histamine administration on the first day [D]: Total gastric acid output from start to one hour after histamine administration on the second day

Cc1cnc(C[S+]([O-])c2nc3ccccc3[n-]2)c(C)c1OCC1COC(C)(C)OC1.[Na+] [Compound A, Sodium salt of (R)-2-({[4-(2,2-dimethyl-1,3-dioxan-5-yl)methoxy-3,5-dimethylpyridin-2-yl]methyl}sulfinyl)-1H-benzimidazole]
Gastric secretion inhibitory action (%) (0.1 mg/kg, average of 4 cases): 8% | Gastric secretion inhibition duration (%) (0.1 mg/kg, 4 cases): 6% | Gastric secretion inhibitory action (%) (0.2 mg/kg, average of 4 cases): 65% | Gastric secretion inhibition duration (%) (0.2 mg/kg, 4 cases): 46% | Gastric secretion inhibitory action (%) (0.4 mg/kg, average of 10 cases): 97% | Gastric secretion inhibition duration (%) (0.4 mg/kg, 10 cases): 77% | Gastric secretion inhibitory action (%) (0.8 mg/kg, average of 8 cases): 100% | Gastric secretion inhibition duration (%) (0.8 mg/kg, 8 cases): 89%
